# Source: ChEMBL document CHEMBL4311981, “Synthesis, anticancer activity, and molecular modeling of 1,4-naphthoquinones that inhibit MKK7 and Cdc25” (Eur J Med Chem, 2019)
# Active and inactive are the calls of the source. The calls are words filed in the database; no cut-off is given here.
# Experiments:
# [1] = molecular target: T1, Dual specificity mitogen-activated protein kinase kinase 7 (Homo sapiens) (UniProt O14733); test: Binding affinity to MKK7 (unknown origin) expressed in HEK293 cells assessed as dissociation constant at <30 uM by kinomescan method; assay type: cell-based
# T1 sequence (whole entry): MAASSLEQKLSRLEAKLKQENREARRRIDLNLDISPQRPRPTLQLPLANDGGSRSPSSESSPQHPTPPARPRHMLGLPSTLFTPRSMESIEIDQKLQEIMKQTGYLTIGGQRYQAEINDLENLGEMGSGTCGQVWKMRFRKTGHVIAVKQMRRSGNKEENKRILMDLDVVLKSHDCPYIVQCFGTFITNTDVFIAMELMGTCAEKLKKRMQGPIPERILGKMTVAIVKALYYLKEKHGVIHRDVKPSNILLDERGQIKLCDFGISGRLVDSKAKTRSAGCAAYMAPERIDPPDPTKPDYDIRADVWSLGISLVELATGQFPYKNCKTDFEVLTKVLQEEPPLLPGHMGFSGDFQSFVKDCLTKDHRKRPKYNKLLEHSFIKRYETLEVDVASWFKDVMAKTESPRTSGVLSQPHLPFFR
# [2] = molecular target: T2, Neutrophil elastase (Homo sapiens) (UniProt P08246); test: Inhibition of recombinant HNE (unknown origin) at <50 uM using N-methylsuccinyl-Ala-Ala-Pro-Val-7-amino-4-methylcoumarin, as a substrate measured every 30 sec for 10 mins by fluorometric assay
# T2 sequence (whole entry): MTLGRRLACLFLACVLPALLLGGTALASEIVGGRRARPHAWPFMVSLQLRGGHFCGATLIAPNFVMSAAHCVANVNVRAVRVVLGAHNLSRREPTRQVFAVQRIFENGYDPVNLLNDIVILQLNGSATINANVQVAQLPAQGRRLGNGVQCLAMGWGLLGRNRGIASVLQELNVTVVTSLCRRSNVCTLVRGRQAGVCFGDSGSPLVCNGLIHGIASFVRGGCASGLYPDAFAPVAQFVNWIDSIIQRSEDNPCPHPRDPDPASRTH
# [3] = molecular target: T3, M-phase inducer phosphatase 1 (Homo sapiens, UniProt P30304)
# T3 sequence (P30304 whole entry): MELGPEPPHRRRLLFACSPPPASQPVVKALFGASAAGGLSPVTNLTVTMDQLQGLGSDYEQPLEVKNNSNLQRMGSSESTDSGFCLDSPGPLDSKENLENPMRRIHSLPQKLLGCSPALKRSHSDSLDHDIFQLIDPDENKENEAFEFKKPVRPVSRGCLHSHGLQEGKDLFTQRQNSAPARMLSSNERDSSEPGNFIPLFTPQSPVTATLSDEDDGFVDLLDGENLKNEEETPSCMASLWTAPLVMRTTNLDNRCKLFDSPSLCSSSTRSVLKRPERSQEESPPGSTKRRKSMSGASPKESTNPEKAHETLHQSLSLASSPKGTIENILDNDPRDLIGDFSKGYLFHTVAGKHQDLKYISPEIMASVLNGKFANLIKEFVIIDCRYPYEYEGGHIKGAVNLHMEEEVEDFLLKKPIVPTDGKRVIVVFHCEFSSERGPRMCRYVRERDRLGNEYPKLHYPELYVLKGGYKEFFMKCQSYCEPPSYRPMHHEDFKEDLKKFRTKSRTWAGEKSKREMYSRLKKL
# Description: Inhibition of recombinant Cdc25A (unknown origin) using OMFP as substrate measured every 30 sec for 10 mins by fluorometric assay
# [4] = molecular target: T4, M-phase inducer phosphatase 2 (Homo sapiens, UniProt P30305)
# T4 sequence (P30305 whole entry): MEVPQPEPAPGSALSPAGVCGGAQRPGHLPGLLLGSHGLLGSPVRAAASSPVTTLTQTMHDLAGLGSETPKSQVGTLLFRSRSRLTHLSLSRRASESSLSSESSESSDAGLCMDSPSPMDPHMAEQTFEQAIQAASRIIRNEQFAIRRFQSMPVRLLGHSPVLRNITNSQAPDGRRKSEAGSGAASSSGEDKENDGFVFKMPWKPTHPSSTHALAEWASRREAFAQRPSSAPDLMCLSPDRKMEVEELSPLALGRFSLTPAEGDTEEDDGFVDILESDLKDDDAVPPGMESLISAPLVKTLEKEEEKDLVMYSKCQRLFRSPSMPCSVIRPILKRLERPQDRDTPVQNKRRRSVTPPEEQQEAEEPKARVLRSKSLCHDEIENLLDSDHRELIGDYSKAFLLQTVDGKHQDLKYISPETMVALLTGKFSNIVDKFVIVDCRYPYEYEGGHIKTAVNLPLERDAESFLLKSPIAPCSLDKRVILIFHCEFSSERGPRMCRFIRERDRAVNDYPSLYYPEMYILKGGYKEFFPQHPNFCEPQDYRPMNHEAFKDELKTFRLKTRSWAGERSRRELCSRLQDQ
# Description: Inhibition of recombinant Cdc25B (unknown origin) using OMFP as substrate measured every 30 sec for 10 mins by fluorometric assay
# THP-1 = test: Cytotoxicity against human THP1 cells assessed as reduction in cell viability incubated for 24 hrs by CellTiter-Glo luminescent cell viability assay; assay type: functional, cell-based; details: THP-1, 24 h
# MONO-MAC-6 = test: Cytotoxicity against human MONO-MAC-6 cells assessed as reduction in cell viability incubated for 24 hrs by CellTiter-Glo luminescent cell viability assay; assay type: functional, cell-based; details: MONO-MAC-6, 24 h
# HL-60 = test: Cytotoxicity against human HL60 cells assessed as reduction in cell viability incubated for 24 hrs by CellTiter-Glo luminescent cell viability assay; assay type: functional, cell-based; details: for IC50: HL-60, 24 h
# SW982 = test: Cytotoxicity against human SW982 cells assessed as reduction in cell viability incubated for 24 hrs by CellTiter-Glo luminescent cell viability assay; assay type: functional, cell-based; details: SW982, 24 h
# U-937 = test: Cytotoxicity against human U937 cells assessed as reduction in cell viability incubated for 24 hrs by CellTiter-Glo luminescent cell viability assay; assay type: functional, cell-based; details: U-937, 24 h
# MCF7 = test: Cytotoxicity against human MCF7 cells assessed as reduction in cell viability incubated for 24 hrs by CellTiter-Glo luminescent cell viability assay; assay type: functional, cell-based; details: MCF7, 24 h
# LS174T = test: Cytotoxicity against human LS174T cells assessed as reduction in cell viability incubated for 24 hrs by CellTiter-Glo luminescent cell viability assay; assay type: functional, cell-based
# A549 = test: Cytotoxicity against human A549 cells assessed as reduction in cell viability incubated for 24 hrs by CellTiter-Glo luminescent cell viability assay; assay type: functional, cell-based; details: for IC50: A549, 24 h
# PBMC = test: Cytotoxicity against human PBMC cells assessed as reduction in cell viability incubated for 24 hrs by CellTiter-Glo luminescent cell viability assay; assay type: cell-based
# Jurkat = test: cells; details: Homo sapiens, 24 h
# Description: Cytotoxicity against human Jurkat cells assessed as reduction in cell viability incubated for 24 hrs by CellTiter-Glo luminescent cell viability assay
# [5] = molecular target: T5, Dual specificity mitogen-activated protein kinase kinase 7 (Homo sapiens, UniProt O14733); test: biochemical
# T5 sequence (O14733 whole entry): T1 sequence (whole entry)
# Description: Binding affinity to MKK7 (unknown origin) expressed in HEK293 cells assessed as dissociation constant by kinomescan method
Compound,Activity [1],inhibition [2],IC50 [3] [µM],IC50 [4] [µM],IC50 (SW982) [µM],IC50 (U-937) [µM],IC50 (A549) [µM],IC50 (Jurkat) [µM],further results
O=C(O)CCSc1nc(O)c2ccccc2n1,inactive,,,,,,,,
O=C(O)CCNC1=C(Cl)C(=O)c2ccccc2C1=O,,inactive,26.1,28.8,,,,,inhibition [1]: inactive
COC(=O)c1ccc(NC2=C(N3CCCCC3)C(=O)c3ccccc3C2=O)cc1,,inactive,11.6,14.2,,,,,inhibition [1]: inactive
CC(C)=CC[C@@H](O)C1=CC(=O)c2c(O)ccc(O)c2C1=O [SHIKONIN],inactive,inactive,0.22,,2.8,1.2,7.3,0.97,IC50 (THP-1): 0.82 µM; IC50 (MONO-MAC-6): 2.6 µM; Activity (HL-60): Dose-dependent effect; IC50 (MCF7): 2.7 µM; IC50 (LS174T): 8.9 µM; IC50 (PBMC; read-out: IC50): 5 µM
CC1=CC(=O)c2ccccc2C1=O [MENADIONE],inactive,inactive,6.9,3.9,9.3,6.3,25.1,5,IC50 (HL-60): 5.6 µM; IC50 (MCF7): 9 µM; IC50 (LS174T): 26.6 µM; IC50 (PBMC; read-out: IC50): 14.5 µM
CC1=C(SCCO)C(=O)c2ccccc2C1=O,inactive,inactive,4.5,10.9,19.3,12.1,41.3,6.8,IC50 (THP-1): 3.9 µM; IC50 (MONO-MAC-6): 6.3 µM; IC50 (HL-60): 9.3 µM; IC50 (MCF7): 30.9 µM; IC50 (LS174T): 39.4 µM; IC50 (PBMC; read-out: IC50): 13.3 µM
O=C(O)CCNC(=O)Cn1cnc2ccccc2c1=O,inactive,,,,,,,,
"COC1=CC(=O)c2ccccc2C1=O [2-Methoxy-1,4-naphthoquinone]",inactive,inactive,2.3,46.8,29.8,13.9,16.4,16.1,IC50 (THP-1): 16.6 µM; IC50 (MONO-MAC-6): 4.8 µM; IC50 (HL-60): 7.1 µM; IC50 (MCF7): 6.1 µM; IC50 (LS174T): 33.7 µM; IC50 (PBMC; read-out: IC50): 29.8 µM
Cn1c(SCCC(=O)O)nc2ccccc2c1=O,inactive,,,,,,,,
CC1=C(SCCC(=O)O)C(=O)c2ccccc2C1=O,,inactive,5.1,,,,,,Kd [5]: 15 µM
O=C(O)CCCCCNC1=C(Cl)C(=O)c2ccccc2C1=O,,inactive,36.4,23.7,,,,,inhibition [1]: inactive
COC(=O)c1ccc(NC2=C(Cl)C(=O)c3ccccc3C2=O)cc1,,inactive,20.3,10.9,,,,,inhibition [1]: inactive
O=C(O)CCCc1nc2ccccc2c(=O)[nH]1,inactive,,,,,,,,
O=C(O)CSC1=CC(=O)c2ccccc2C1=O,,inactive,0.05,1,11.1,15.9,22.9,0.94,IC50 (MONO-MAC-6): 23.2 µM; IC50 (HL-60): 20.4 µM; Activity (A549): inactive; Kd [5]: 1.4 µM
Nn1c(CCC(=O)O)nc2ccccc2c1=O,inactive,,,,,,,,
CC1=CC(=O)c2c(O)cccc2C1=O,,inactive,,,,,,,
CCN(CC)CCNC(=O)c1c(C)[nH]c(/C=C2\C(=O)Nc3ccc(F)cc32)c1C [SUNITINIB],,,,,41.2,13.7,,,IC50 (PBMC): 46.3 µM
O=C1C(O)=C(CN(CCCl)CCCl)C(=O)c2ccccc21,,,15.4,,,,,,
CSC1=C(SC)C(=O)c2ccccc2C1=O,,inactive,,,7.6,,12.4,1.4,IC50 (THP-1): 1.7 µM; IC50 (HL-60): 0.7 µM; IC50 (MCF7): 7.4 µM; IC50 (LS174T): 15.1 µM
O=C(O)CSc1nc(O)c2ccccc2n1,inactive,,,,,,,,
O=C(O)c1ccc(NC2=C(Cl)C(=O)c3ccccc3C2=O)cc1,,inactive,2.4,4.9,4.6,3.9,17.6,5.5,IC50 (THP-1): 5.6 µM; IC50 (MONO-MAC-6): 6 µM; IC50 (HL-60): 8.9 µM; IC50 (MCF7): 14.5 µM; IC50 (LS174T): 9.9 µM; IC50 (PBMC; read-out: IC50): 13.1 µM; inhibition [1]: inactive
O=C(O)CCCNC1=C(Cl)C(=O)c2ccccc2C1=O,,inactive,8.2,10.9,,,,,inhibition [1]: inactive
